{
  "source": "paper PMC5114336",
  "about": "“Enhanced anti-tumour activity of the combination of the novel MEK inhibitor WX-554 and the novel PI3K inhibitor WX-037” (Cancer Chemotherapy and Pharmacology, 2016)",
  "origin": "cited, not measured here",
  "key": {"HCT116 cells": {"system": "HCT116 cells", "settings": "HCT116, using the same assay; read-out: GI50 (potency); cited from earlier work"}, "HT29 cells": {"system": "HT29 cells", "settings": "HT29, using the same assay; read-out: GI50 (potency); cited from earlier work"}},
  "data": [
    {"smiles": "CS(=O)(=O)N1CCN(Cc2cc3nc(-c4cccc5[nH]ncc45)nc(N4CCOCC4)c3s2)CC1", "note": "[pictilisib, 2-(1H-Indazol-4-yl)-6-(4-methanesulfonyl-piperazin-1-ylmethyl)-4-morpholin-4-yl-thieno[3,2-d]pyrimidine]", "values": [
      {"measurement": "GI50", "setting": "HCT116 cells", "value": 1080, "unit": "nM"},
      {"measurement": "GI50", "setting": "HT29 cells", "value": 157, "unit": "nM"}
    ]}
  ]
}
